Laboratory results: patent US10913727B2, “Modulators of the integrated stress pathway” (Calico Life Sciences LLC, priority 2016, dated 2021)

Tested on: HEK293T cells carrying the ATF4 luciferase reporter
Assay: ATF4-Luc assay, in vitro model of Vanishing Cell White Matter Disease (VWMD)
Assay type: cell-based
Details: Homo sapiens, HEK-293T, 1 μg/mL tunicamycin, 7 hours, One Glo luminescence
Method in brief: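 Stable HEK293T line with human ATF4 5′-UTR–firefly luciferase reporter treated with 1 μg/mL tunicamycin plus 200 nM compound for 7 h. Luminescence read; EC50 derived.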

SMILES | EC50
Cc1cc(C(=O)NC23CC(NC(=O)COc4ccc(Cl)c(Cl)c4)(C2)C3)on1 [Compound 431, N-{3-[2-(3,4-dichlorophenoxy)acetamido]bicyclo[1.1.1]pentan-1-yl}-3-methyl-1,2-oxazole-5-carboxamide] | 50 to 250 nM
CC(C)(O)CCc1ccnc(C(=O)NC23CC(NC(=O)COc4ccc(Cl)c(F)c4)(C2)C3)c1 [Compound 432, N-{3-[2-(4-chloro-3-fluorophenoxy)acetamido]bicyclo[1.1.1]pentan-1-yl}-4-(3-hydroxy-3-methylbutyl)pyridine-2-carboxamide] | > 2000 nM
CC(C)(O)CCc1ccnc(C(=O)NC23CC(NC(=O)COc4ccc(Cl)c(Cl)c4)(C2)C3)c1 [Compound 433, N-{3-[2-(3,4-dichlorophenoxy)acetamido]bicyclo[1.1.1]pentan-1-yl}-4-(3-hydroxy-3-methylbutyl)pyridine-2-carboxamide] | > 2000 nM
O=C(COc1ccc(Cl)c(F)c1)NC12CC(Nc3nccn4cccc34)(C1)C2 [Compound 434, 2-(4-chloro-3-fluorophenoxy)-N-{3-[(pyrrolo[1,2-a]pyrazin-1-yl)amino]bicyclo[1.1.1]pentan-1-yl}acetamide] | 250 to 1000 nM
Cc1nn(C)c2ncnc(NC34CC(NC(=O)COc5ccc(Cl)c(F)c5)(C3)C4)c12 [Compound 435, 2-(4-chloro-3-fluorophenoxy)-N-{3-[(1,3-dimethyl-1H-pyrazolo[3,4-d]pyrimidin-4-yl)amino]bicyclo[1.1.1]pentan-1-yl}acetamide] | > 2000 nM
Cc1cc2c(NC34CC(NC(=O)COc5ccc(F)c(F)c5)(C3)C4)nccn2n1 [Compound 436, 2-(3,4-difluorophenoxy)-N-{3-[(2-methylpyrazolo[1,5-a]pyrazin-4-yl)amino]bicyclo[1.1.1]pentan-1-yl}acetamide] | 50 to 250 nM
Cn1nc(C(F)F)cc1C(=O)NC12CCC(NC(=O)COc3ccc(Cl)c(F)c3)(CC1)C(O)C2 (stereo not drawn) [Compound 437, N-{4-[2-(4-chloro-3-fluorophenoxy)acetamido]-3-hydroxybicyclo[2.2.2]octan-1-yl}-3-(difluoromethyl)-1-methyl-1H-pyrazole-5-carboxamide] | < 50 nM
Cc1cc2c(NC34CC(NC(=O)COc5ccc(OC(F)F)cc5)(C3)C4)nccn2n1 [Compound 438, 2-[4-(difluoromethoxy)phenoxy]-N-{3-[(2-methylpyrazolo[1,5-a]pyrazin-4-yl)amino]bicyclo[1.1.1]pentan-1-yl}acetamide] | 250 to 1000 nM
Cc1cc2c(NC34CC(NC(=O)COc5cccc(OC(F)F)c5)(C3)C4)nccn2n1 [Compound 439, 2-[3-(difluoromethoxy)phenoxy]-N-{3-[(2-methylpyrazolo[1,5-a]pyrazin-4-yl)amino]bicyclo[1.1.1]pentan-1-yl}acetamide] | > 2000 nM
O=C(COc1ccc(Cl)c(F)c1)NC12CC(NC(=O)c3ccc(OC(F)F)nc3)(C1)C2 [Compound 440, N-{3-[2-(4-chloro-3-fluorophenoxy)acetamido]bicyclo[1.1.1]pentan-1-yl}-6-(difluoromethoxy)pyridine-3-carboxamide] | 50 to 250 nM
Cc1cc(C(=O)NC23CC(NC(=O)COc4ccc(Cl)c(Cl)c4)(C2)C3)n(C)n1 [Compound 441, N-{3-[2-(3,4-dichlorophenoxy)acetamido]bicyclo[1.1.1]pentan-1-yl}-1,3-dimethyl-1H-pyrazole-5-carboxamide] | < 50 nM
Cc1cc(C(=O)NC23CC(NC(=O)COc4ccc5c(c4)OC(F)(F)O5)(C2)C3)n(C)n1 [Compound 442, N-(3-{2-[(2,2-difluoro-2H-1,3-benzodioxol-5-yl)oxy]acetamido}bicyclo[1.1.1]pentan-1-yl)-1,3-dimethyl-1H-pyrazole-5-carboxamide] | 250 to 1000 nM
O=C(COc1ccc(Cl)c(F)c1)NC12CC(NC(=O)c3cnc(C(F)F)s3)(C1)C2 [Compound 443, N-{3-[2-(4-chloro-3-fluorophenoxy)acetamido]bicyclo[1.1.1]pentan-1-yl}-2-(difluoromethyl)-1,3-thiazole-5-carboxamide] | < 50 nM
Cc1cc(C(=O)NC23CCC(NC(=O)COc4ccc(Cl)c(F)c4)(CC2)CC3)on1 [Compound 444, N-{4-[2-(4-chloro-3-fluorophenoxy)acetamido]bicyclo[2.2.2]octan-1-yl}-3-methyl-1,2-oxazole-5-carboxamide] | > 2000 nM
O=C(COc1ccc(Cl)c(F)c1)NC12CC(Nc3nccn4cnnc34)(C1)C2 [Compound 445, 2-(4-chloro-3-fluorophenoxy)-N-{3-[([1,2,4]triazolo[4,3-a]pyrazin-8-yl)amino]bicyclo[1.1.1]pentan-1-yl}acetamide] | > 2000 nM
Cc1nc(C)c(C(=O)NC23CCC(NC(=O)COc4ccc(Cl)c(F)c4)(CC2)C(O)C3)s1 (stereo not drawn) [Compound 446, N-{4-[2-(4-chloro-3-fluorophenoxy)acetamido]-3-hydroxybicyclo[2.2.2]octan-1-yl}-2,4-dimethyl-1,3-thiazole-5-carboxamide] | 250 to 1000 nM
Cc1cc(C(=O)NC23CCC(NC(=O)COc4ccc(Cl)c(F)c4)(CC2)C(O)C3)n(C)n1 (stereo not drawn) [Compound 447, N-{4-[2-(4-chloro-3-fluorophenoxy)acetamido]-3-hydroxybicyclo[2.2.2]octan-1-yl}-1,3-dimethyl-1H-pyrazole-5-carboxamide] | 50 to 250 nM
O=C(COc1ccc(Cl)c(F)c1)NC12CC(Nc3nccn4ncnc34)(C1)C2 [Compound 448, 2-(4-chloro-3-fluorophenoxy)-N-{3-[([1,2,4]triazolo[1,5-a]pyrazin-8-yl)amino]bicyclo[1.1.1]pentan-1-yl}acetamide] | 1000 to 2000 nM
Cc1csc(C(=O)NC23CC(NC(=O)COc4ccc(Cl)c(F)c4)(C2)C3)n1 [Compound 450, N-{3-[2-(4-chloro-3-fluorophenoxy)acetamido]bicyclo[1.1.1]pentan-1-yl}-4-methyl-1,3-thiazole-2-carboxamide] | 50 to 250 nM
O=C(COc1ccc(Cl)c(F)c1)NC12CCC(NC(=O)c3ccc(OC(F)(F)F)nc3)(CC1)CC2O (stereo not drawn) [Compound 451, N-{4-[2-(4-chloro-3-fluorophenoxy)acetamido]-3-hydroxybicyclo[2.2.2]octan-1-yl}-6-(trifluoromethoxy)pyridine-3-carboxamide] | < 50 nM
Cc1ccc(C(=O)NC23CC(NC(=O)COc4ccc(Cl)c(F)c4)(C2)C3)cc1CO [Compound 452, N-{3-[2-(4-chloro-3-fluorophenoxy)acetamido]bicyclo[1.1.1]pentan-1-yl}-3-(hydroxymethyl)-4-methylbenzamide] | 250 to 1000 nM
O=C(COc1ccc(Cl)c(F)c1)NC12CC(NC(=O)c3cncc(CO)c3)(C1)C2 [Compound 453, N-{3-[2-(4-chloro-3-fluorophenoxy)acetamido]bicyclo[1.1.1]pentan-1-yl}-5-(hydroxymethyl)pyridine-3-carboxamide] | 1000 to 2000 nM
O=C(COc1ccc(C(F)(F)F)nc1)NC12CC(NC(=O)c3ccc(OC(F)(F)F)cn3)(C1)C2 [Compound 454, 5-(trifluoromethoxy)-N-[3-(2-{[6-(trifluoromethyl)pyridin-3-yl]oxy}acetamido)bicyclo[1.1.1]pentan-1-yl]pyridine-2-carboxamide] | 50 to 250 nM
O=C(COc1ccc(C(F)(F)F)nc1)NC12CC(NC(=O)c3cnc(C(F)F)cn3)(C1)C2 [Compound 455, 5-(difluoromethyl)-N-[3-(2-{[6-(trifluoromethyl)pyridin-3-yl]oxy}acetamido)bicyclo[1.1.1]pentan-1-yl]pyrazine-2-carboxamide] | > 2000 nM
